Test results as given in patent US20230399312A1, “SUBSTITUTED PYRIMIDINES AND METHODS OF USE” (THERAVANCE BIOPHARMA R&D IP, LLC, priority 2020, published 2023).

What was measured:
[1] = target: T1, recombinant human ALK5 (TGF-βR1) protein (Homo sapiens, UniProt P36897); assay: Biochemical ALK5 (TGF-βR1) assay to measure pKi (LANCE Ultra ULight kinase assay); settings: apparent pKi, converted from pIC50 by Cheng-Prusoff
T1 construct: purchased Life Technologies PR9075A
T1 sequence (P36897 34-503): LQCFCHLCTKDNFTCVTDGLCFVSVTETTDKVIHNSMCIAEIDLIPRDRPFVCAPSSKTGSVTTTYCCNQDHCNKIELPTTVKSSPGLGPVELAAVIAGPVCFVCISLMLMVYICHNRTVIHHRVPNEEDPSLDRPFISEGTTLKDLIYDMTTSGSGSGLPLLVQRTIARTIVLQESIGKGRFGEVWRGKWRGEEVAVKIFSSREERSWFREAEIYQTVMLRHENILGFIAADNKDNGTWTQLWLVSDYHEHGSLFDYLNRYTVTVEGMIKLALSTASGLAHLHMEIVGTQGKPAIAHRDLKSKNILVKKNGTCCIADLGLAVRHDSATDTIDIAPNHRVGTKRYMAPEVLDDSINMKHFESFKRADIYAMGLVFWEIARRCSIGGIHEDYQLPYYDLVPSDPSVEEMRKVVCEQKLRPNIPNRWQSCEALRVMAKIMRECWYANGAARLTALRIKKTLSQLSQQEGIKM
In short: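 Dose-response series of each compound were preincubated with the kinase for 60 minutes at room temperature. Phosphorylation proceeded for 60 minutes at 37 °C after ATP addition, was quenched with EDTA, and was detected with a europium anti-phospho-Thr1342 antibody by TR-FRET; pKi was calculated from pIC50.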

[2] = test system: TGF-β-stimulated SMAD3 phosphorylation in BEAS-2B cells; assay: Cellular ALK5 potency assay, inhibition of TGF-β stimulated pSMAD3 formation in BEAS-2B cells; type: cell-based; settings: Homo sapiens, pSMAD3, TGF-β 10 ng/mL, read-out: BEAS2B pIC50 (converted)
In short: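 Read-out is AlphaLISA detection of phospho-SMAD3 in lysates of BEAS-2B human lung epithelial cells. Cells are exposed to compound for 1 hour, then to 10 ng/mL TGF-β (final) for 30 minutes. Values are pIC50 from concentration–response curves.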

Cc1cccc(-c2nccc(Nc3ccnc(Nc4csc(C(=O)OC[C@H]5CC[C@H](N)CC5)c4)n3)n2)n1 [Compound 590, (4-aminocyclohexyl)methyl 4-[[4-[[2-(6-methyl-2-pyridyl)pyrimidin-4-yl]amino]pyrimidin-2-yl]amino]thiophene-2-carboxylate]
Ki [1]: 0.0398 to 0.316 nM
IC50 [2]: 25.1 to 158 nM

Cc1cccc(-c2nccc(Nc3ccnc(Nc4csc(C(=O)OC5CCNCC5)c4)n3)n2)n1 [Compound 591, 4-piperidyl 4-[[4-[[2-(6-methyl-2-pyridyl)pyrimidin-4-yl]amino]pyrimidin-2-yl]amino]thiophene-2-carboxylate]
Ki [1]: 0.0398 to 0.316 nM
IC50 [2]: 25.1 to 158 nM

Cc1cccc(-c2nccc(Nc3ccnc(Nc4ncc(C(=O)OC[C@H]5CCCN5)s4)n3)n2)n1 [Compound 592, [(2R)-pyrrolidin-2-yl]methyl 2-[[4-[[2-(6-methyl-2-pyridyl)pyrimidin-4-yl]amino]pyrimidin-2-yl]amino]thiazole-5-carboxylate]
Ki [1]: 3.98 to 31.6 nM
IC50 [2]: 25.1 to 158 nM

Cc1cccc(-c2nccc(Nc3ccnc(Nc4nc(C(=O)OC[C@H]5CCCN5)cs4)n3)n2)n1 [Compound 593, [(2R)-pyrrolidin-2-yl]methyl 2-[[4-[[2-(6-methyl-2-pyridyl)pyrimidin-4-yl]amino]pyrimidin-2-yl]amino]thiazole-4-carboxylate]
Ki [1]: 0.398 to 3.16 nM
IC50 [2]: 25.1 to 158 nM

Cc1cccc(-c2nccc(Nc3ccnc(Nc4ccc(C(=O)O[C@@H]5CCCNC5)nc4)n3)n2)n1 [Compound 594, [(3R)-3-piperidyl] 5-[[4-[[2-(6-methyl-2-pyridyl)pyrimidin-4-yl]amino]pyrimidin-2-yl]amino]pyridine-2-carboxylate]
Ki [1]: 0.0398 to 0.316 nM
IC50 [2]: 200 to 1260 nM

Cc1cccc(-c2nccc(Nc3ccnc(Nc4cncc(C(=O)OC[C@@H]5CCCNC5)c4)n3)n2)n1 [Compound 595]
Ki [1]: 0.398 to 3.16 nM
IC50 [2]: 25.1 to 158 nM

Cc1cccc(-c2nccc(Nc3ccnc(Nc4ccc(C(=O)OC5CCCNCC5)nc4)n3)n2)n1 (stereo not shown) [Compound 596, azepan-4-yl 5-[[4-[[2-(6-methyl-2-pyridyl)pyrimidin-4-yl]amino]pyrimidin-2-yl]amino]pyridine-2-carboxylate]
Ki [1]: 0.0398 to 0.316 nM
IC50 [2]: 200 to 1260 nM

Cc1cccc(-c2nccc(Nc3ccnc(Nc4ccc(C(=O)OC[C@@H]5CCCCN5)nc4)n3)n2)n1 [Compound 597, [(2S)-2-piperidyl]methyl 5-[[4-[[2-(6-methyl-2-pyridyl)pyrimidin-4-yl]amino]pyrimidin-2-yl]amino]pyridine-2-carboxylate]
Ki [1]: 0.0398 to 0.316 nM
IC50 [2]: 25.1 to 158 nM

Cc1cccc(-c2nccc(Nc3ccnc(Nc4csc(C(=O)OCCN5CCC[C@@H](N)C5)c4)n3)n2)n1 [Compound 598, 2-[(3R)-3-amino-1-piperidyl]ethyl 4-[[4-[[2-(6-methyl-2-pyridyl)pyrimidin-4-yl]amino]pyrimidin-2-yl]amino]thiophene-2-carboxylate]
Ki [1]: 0.0398 to 0.316 nM
IC50 [2]: 25.1 to 158 nM

Cc1cccc(-c2nccc(Nc3ccnc(Nc4csc(C(=O)OCCN5CCN6CCCC6C5)c4)n3)n2)n1 (stereo not shown) [Compound 599, 2-(3,4,6,7,8,8a-hexahydro-1H-pyrrolo[1,2-a]pyrazin-2-yl)ethyl 4-[[4-[[2-(6-methyl-2-pyridyl)pyrimidin-4-yl]amino]pyrimidin-2-yl]amino]thiophene-2-carboxylate]
Ki [1]: 0.0398 to 0.316 nM
IC50 [2]: 25.1 to 158 nM

Cc1cccc(-c2nccc(Nc3ccnc(Nc4csc(C(=O)OC[C@H]5CCCNC5)c4)n3)n2)n1 [Compound 600, [(3S)-3-piperidyl]methyl 4-[[4-[[2-(6-methyl-2-pyridyl)pyrimidin-4-yl]amino]pyrimidin-2-yl]amino]thiophene-2-carboxylate]
Ki [1]: 0.0398 to 0.316 nM
IC50 [2]: 25.1 to 158 nM

Cc1cccc(-c2nccc(Nc3ccnc(Nc4cc(C(=O)O[C@@H]5CCNC5)ccn4)n3)n2)n1 [Compound 601, [(3R)-pyrrolidin-3-yl] 2-[[4-[[2-(6-methyl-2-pyridyl)pyrimidin-4-yl]amino]pyrimidin-2-yl]amino]pyridine-4-carboxylate]
Ki [1]: 3.98 to 31.6 nM
IC50 [2]: 200 to 1260 nM

Cc1cccc(-c2nccc(Nc3ccnc(Nc4csc(C(=O)OCCC5CNC5)c4)n3)n2)n1 [Compound 602, 2-(azetidin-3-yl)ethyl 4-[[4-[[2-(6-methyl-2-pyridyl)pyrimidin-4-yl]amino]pyrimidin-2-yl]amino]thiophene-2-carboxylate]
Ki [1]: 0.0398 to 0.316 nM
IC50 [2]: 25.1 to 158 nM

Cc1cccc(-c2nccc(Nc3ccnc(Nc4cncc(CN5CC(C(=O)O)C5)c4)n3)n2)n1 [Compound 603, 1-[[5-[[4-[[2-(6-methyl-2-pyridyl)pyrimidin-4-yl]amino]pyrimidin-2-yl]amino]-3-pyridyl]methyl]azetidine-3-carboxylic acid]
Ki [1]: 0.0398 to 0.316 nM
IC50 [2]: 1580 to 10000 nM

Cc1cccc(-c2nccc(Nc3ccnc(Nc4ncc(N5C[C@@H](C)N[C@@H](C)C5)s4)n3)n2)n1 [Compound 604, N2-[5-[(3R,5S)-3,5-dimethylpiperazin-1-yl]thiazol-2-yl]-N4-[2-(6-methyl-2-pyridyl)pyrimidin-4-yl]pyrimidine-2,4-diamine]
Ki [1]: 3.98 to 31.6 nM
IC50 [2]: 200 to 1260 nM

Cc1cccc(-c2nccc(Nc3ccnc(Nc4ccc(C(=O)OC[C@H]5CNCCO5)nc4)n3)n2)n1 [Compound 605, [(2R)-morpholin-2-yl]methyl 5-[[4-[[2-(6-methyl-2-pyridyl)pyrimidin-4-yl]amino]pyrimidin-2-yl]amino]pyridine-2-carboxylate]
Ki [1]: 0.0398 to 0.316 nM
IC50 [2]: 200 to 1260 nM

Cc1cccc(-c2nccc(Nc3ccnc(Nc4cncc(C(=O)OCC5CCNCC5)c4)n3)n2)n1 [Compound 606, 4-piperidylmethyl 5-[[4-[[2-(6-methyl-2-pyridyl)pyrimidin-4-yl]amino]pyrimidin-2-yl]amino]pyridine-3-carboxylate]
Ki [1]: 0.398 to 3.16 nM
IC50 [2]: 25.1 to 158 nM

Cc1cccc(-c2nccc(Nc3ccnc(Nc4csc(C(=O)OCC5CCNCC5)c4)n3)n2)n1 [Compound 607, 4-piperidylmethyl 4-[[4-[[2-(6-methyl-2-pyridyl)pyrimidin-4-yl]amino]pyrimidin-2-yl]amino]thiophene-2-carboxylate]
Ki [1]: 0.0398 to 0.316 nM
IC50 [2]: 25.1 to 158 nM

Cc1cccc(-c2nccc(Nc3ccnc(Nc4cc(C(=O)OCC5CNC5)ccn4)n3)n2)n1 [Compound 608, azetidin-3-ylmethyl 2-[[4-[[2-(6-methyl-2-pyridyl)pyrimidin-4-yl]amino]pyrimidin-2-yl]amino]pyridine-4-carboxylate]
Ki [1]: 3.98 to 31.6 nM
IC50 [2]: 200 to 1260 nM

Cc1cccc(-c2nccc(Nc3ccnc(Nc4ncc(C5=CCNC5)s4)n3)n2)n1 [Compound 609, N2-[5-(2,5-dihydro-1H-pyrrol-3-yl)thiazol-2-yl]-N4-[2-(6-methyl-2-pyridyl)pyrimidin-4-yl]pyrimidine-2,4-diamine]
Ki [1]: 0.398 to 3.16 nM
IC50 [2]: 25.1 to 158 nM

Cc1cccc(-c2nccc(Nc3ccnc(Nc4ccnc(C(=O)O)c4)n3)n2)n1 [Compound 610, 4-[[4-[[2-(6-methyl-2-pyridyl)pyrimidin-4-yl]amino]pyrimidin-2-yl]amino]pyridine-2-carboxylic acid]
Ki [1]: 0.0398 to 0.316 nM
IC50 [2]: 1580 to 10000 nM

Cc1cccc(-c2nccc(Nc3ccnc(Nc4nc(C(=O)OC[C@@H]5CCNC5)cs4)n3)n2)n1 [Compound 611, [(3R)-pyrrolidin-3-yl]methyl 2-[[4-[[2-(6-methyl-2-pyridyl)pyrimidin-4-yl]amino]pyrimidin-2-yl]amino]thiazole-4-carboxylate]
Ki [1]: 0.398 to 3.16 nM
IC50 [2]: 200 to 1260 nM

Cc1cccc(-c2nccc(Nc3ccnc(Nc4ccc(C(=O)OC[C@@H]5CCCN5)nc4)n3)n2)n1 [Compound 612, [(2S)-pyrrolidin-2-yl]methyl 5-[[4-[[2-(6-methyl-2-pyridyl)pyrimidin-4-yl]amino]pyrimidin-2-yl]amino]pyridine-2-carboxylate]
Ki [1]: 0.0398 to 0.316 nM
IC50 [2]: 25.1 to 158 nM

Cc1cccc(-c2nccc(Nc3ccnc(Nc4ccc(C(=O)OCCN5CCN6CCCC6C5)nc4)n3)n2)n1 (stereo not shown) [Compound 613, 2-(3,4,6,7,8,8a-hexahydro-1H-pyrrolo[1,2-a]pyrazin-2-yl)ethyl 5-[[4-[[2-(6-methyl-2-pyridyl)pyrimidin-4-yl]amino]pyrimidin-2-yl]amino]pyridine-2-carboxylate]
Ki [1]: 0.398 to 3.16 nM
IC50 [2]: 25.1 to 158 nM

Cc1cccc(-c2nccc(Nc3ccnc(Nc4cncc(CN5CC(C(=O)OCC6CNC6)C5)c4)n3)n2)n1 [Compound 614, azetidin-3-ylmethyl 1-[[5-[[4-[[2-(6-methyl-2-pyridyl)pyrimidin-4-yl]amino]pyrimidin-2-yl]amino]-3-pyridyl]methyl]azetidine-3-carboxylate]
Ki [1]: 0.0398 to 0.316 nM
IC50 [2]: 25.1 to 158 nM

Cc1cccc(-c2nccc(Nc3ccnc(Nc4nc(C(=O)OCC5CCNCC5)cs4)n3)n2)n1 [Compound 615, 4-piperidylmethyl 2-[[4-[[2-(6-methyl-2-pyridyl)pyrimidin-4-yl]amino]pyrimidin-2-yl]amino]thiazole-4-carboxylate]
Ki [1]: 0.398 to 3.16 nM
IC50 [2]: 200 to 1260 nM
